Data on 3 compounds can be found in ChEMBL document CHEMBL5728247, “Kinase inhibitors for the treatment of disease” (2021).

Usually IC50 stands for the concentration that inhibits the measured activity by half.

SMILES strings stand for the structures.

In this assay the target is Tyrosine-protein kinase BTK (Homo sapiens, UniProt Q06187). The assay is described as follows: Kinase Assay: 1. Optimization of kinase concentration required to determine ATP Km,app. The assay was first performed at a high concentration of ATP (1 mM) against a dilution series of kinase in order to determine the amount of kinase required to elicit an approximately 80% change between the minimum and maximum TR-FRET emission ratios (the EC80 value).2. Determination of ATP Km,app. Using the concentration of enzyme determined in step 1, the assay was then performed against a dilution series of ATP in order to determine the amount of ATP required to elicit a 50% change between the minimum and maximum TR-FRET emission ratios (the EC50 value). This concentration of ATP was referred to as the “apparent” Km value for ATP, or the ATP Km,app.3. Optimization of kinase concentration required for assay at ATP Km,app. Using the ATP Km,app concentration of ATP determined in step 2, the kinase titration was repeated in order to determine the concentration of kinase required to elicit an approximately 80% change between the minimum and maximum TR-FRET emission ratios at the ATP Km,app concentration of ATP (the EC80 value). This was the concentration of kinase that will be used in an assay to determine an IC50 value for a compound of the invention. Background: TR-FRET usually uses a lanthanide donor and a delayed reading to cut background.
Tyrosine-protein kinase BTK, sequence (Q06187 whole entry): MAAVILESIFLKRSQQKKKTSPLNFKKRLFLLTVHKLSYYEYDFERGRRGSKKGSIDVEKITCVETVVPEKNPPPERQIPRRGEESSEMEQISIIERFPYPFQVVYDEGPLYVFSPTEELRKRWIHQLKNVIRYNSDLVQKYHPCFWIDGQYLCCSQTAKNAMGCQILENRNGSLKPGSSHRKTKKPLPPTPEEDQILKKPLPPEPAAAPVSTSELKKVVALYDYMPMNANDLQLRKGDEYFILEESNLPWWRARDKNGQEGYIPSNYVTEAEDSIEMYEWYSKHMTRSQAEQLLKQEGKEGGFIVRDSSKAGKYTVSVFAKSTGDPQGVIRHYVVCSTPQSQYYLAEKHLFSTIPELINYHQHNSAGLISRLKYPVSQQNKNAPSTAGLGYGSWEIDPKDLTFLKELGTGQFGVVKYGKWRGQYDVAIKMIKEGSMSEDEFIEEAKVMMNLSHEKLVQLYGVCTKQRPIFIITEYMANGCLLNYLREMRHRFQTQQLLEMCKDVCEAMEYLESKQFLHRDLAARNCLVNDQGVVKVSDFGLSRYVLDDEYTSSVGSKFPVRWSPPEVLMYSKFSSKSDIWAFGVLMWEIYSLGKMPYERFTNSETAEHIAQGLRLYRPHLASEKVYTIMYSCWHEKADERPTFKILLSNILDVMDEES

`C=CC(=O)Nc1cccc(N(C(=O)OCc2ccccc2)c2ccnc(Nc3cnn(CCN4CCOCC4)c3)n2)c1`: the IC50 was found to be 5.74 nM.
In the case of `C=CC(=O)Nc1cccc(N(C(=O)OCc2ccccc2)c2ccnc(Nc3cnn(C)c3)n2)c1` it was 5.13 nM.
Then `C=CC(=O)Nc1cccc(N(C(=O)OCc2ccccc2)c2ccnc(Nc3cnn(C4CCOCC4)c3)n2)c1`, with 3.12 nM.
